Results as given in ChEMBL document CHEMBL3832039, “DailyMed|setid=8e4382de-df78-4821-b11e-c423442a7ff8 | DIOVAN - valsartan tablet|PD-Rx Pharmaceuticals, Inc”.

Assays:
Format in all cases: ADME, organism-based
[1] = (§1) Pharmacokinetic parameters for Valsartan following oral or intravenous administration of Valsartan solution.; conditions: human, in vivo, dosed compound id 15, dosed compound name VALSARTAN, tissue Plasma
Homo sapiens = experiment: as §1; conditions: in vivo, po, dosed compound id 15, dosed compound name VALSARTAN
[2] = Apparent clearance of Valsartan following oral administration of 40 to 160 mg Valsartan, twice a day, to heart failure patients.; conditions: human, in vivo, dose Range 40 to 160 mg, dosed compound id 15, dosed compound name VALSARTAN, regimen Every 12h, tissue Plasma, read-out: CL(app) (converted)

Tmax ([1]; po): 2 to 4 h | clearance ([1]; route iv): 33.3 mL/min | half-life ([1]; route iv): 6 h | CL renal ([1]; route iv, read-out: CL_renal (converted)): 10.3 mL/min | Vd ([1]; route iv, read-out: Vss): 17 L | Excretion (Homo sapiens; tissue Feces): 83% | Excretion (Homo sapiens; tissue Urine): 13% | CL/F [2]: 75 mL/min
SMILES: CCCCC(=O)N(Cc1ccc(-c2ccccc2-c2nnn[nH]2)cc1)[C@H](C(=O)O)C(C)C [VALSARTAN]
